The source of these data is PubChem BioAssay (NCI).

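Step 1: Grow cells in 96-well plates. Step 2: Expose to compound for 48 hours at 5 concentrations. Step 3: Interpolate endpoints linearly; if unreached, use highest concentration. TGI is the concentration that stops growth completely.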 Some results are limits rather than exact numbers.

Test systems include LOX IMVI melanoma; SNB-75 CNS; MDA-N; 786-0 renal; NCI-H522 lung; MALME-3M melanoma; SW-620 colon; PC-3 prostate; A549 NSCLC; MOLT-4 leukemia; COLO 205 colon; NCI-H23 lung; NCI-H226 lung; HT29 colon; MDA-MB-435; NCI/ADR-RES ovarian; CCRF-CEM leukemia; SN12C renal; IGROV1 ovarian; HL-60(TB) leukemia.
Common to all, as to assay: DTP human tumour cell line panel, 48 h

The term TGI denotes the concentration giving total growth inhibition. A lower TGI goes with greater sensitivity of the cells. For `CC(C)(C)OC(=O)NCCCCC(N)C(N)=O` (configuration not stated), the TGI with LOX IMVI melanoma, in the assay with SNB-75 CNS, with MDA-N, in the assay with 786-0 renal, in the assay with NCI-H522 lung and with MALME-3M melanoma was above 100 µM each time. For the same compound, the TGI in the assay with SW-620 colon, with PC-3 prostate, in the assay with A549 NSCLC, with MOLT-4 leukemia, with COLO 205 colon and with NCI-H23 lung was above 100 µM throughout. Besides, the total growth inhibition concentration (TGI) with NCI-H226 lung, with HT29 colon, in the assay with MDA-MB-435, in the assay with NCI/ADR-RES ovarian, in the assay on CCRF-CEM leukemia and with SN12C renal was above 100 µM each time. In the assay on IGROV1 ovarian, this compound showed a total growth inhibition concentration (TGI) above 100 µM.

With `COc1cc(C2SCC(=O)N2c2cc(Cl)c(Cl)cc2Cl)cc(OC)c1OC` (configuration not stated), the TGI with LOX IMVI melanoma was above 100 µM; with MDA-N it was 95.4 µM; in the assay on 786-0 renal it was above 100 µM; with NCI-H522 lung it was above 100 µM; in the assay on SW-620 colon, above 100 µM; in the assay with PC-3 prostate, above 100 µM. Moreover, the concentration for total growth inhibition (TGI) with A549 NSCLC, with HL-60(TB) leukemia, with MOLT-4 leukemia, in the assay with COLO 205 colon, with NCI-H23 lung and in the assay on NCI-H226 lung was above 100 µM in each case. Moreover, the total growth inhibition concentration (TGI) was above 100 µM in the assay on HT29 colon; above 100 µM in the assay on MDA-MB-435; above 100 µM in the assay with NCI/ADR-RES ovarian; 77.6 µM in the assay on CCRF-CEM leukemia; above 100 µM in the assay on SN12C renal; above 100 µM with IGROV1 ovarian.

Turning to `COc1cc(C=O)ccc1Oc1nnnn1-c1ccccc1`, the TGI in the assay on LOX IMVI melanoma, in the assay on SNB-75 CNS, in the assay with MDA-N, in the assay on 786-0 renal, with NCI-H522 lung and with MALME-3M melanoma was above 100 µM each time. Moreover, the TGI was above 100 µM in the assay with SW-620 colon; above 100 µM in the assay on PC-3 prostate; above 100 µM in the assay on A549 NSCLC; 75.1 µM with MOLT-4 leukemia; above 100 µM in the assay with COLO 205 colon; above 100 µM with NCI-H23 lung. For the same compound, the TGI with NCI-H226 lung was 56.7 µM; in the assay with HT29 colon it was above 100 µM; in the assay with MDA-MB-435, above 100 µM; in the assay on NCI/ADR-RES ovarian, above 100 µM; in the assay on CCRF-CEM leukemia, 52.4 µM; in the assay on SN12C renal, above 100 µM. In the assay on IGROV1 ovarian, this compound returned a TGI above 100 µM.

Take `Oc1ccc(-c2csc(NNC3=NC/C(=C/c4ccc5c(c4)OCO5)S3)n2)cc1O`: the TGI in the assay on LOX IMVI melanoma is above 100 µM; in the assay with SNB-75 CNS it was 38.9 µM; in the assay with MDA-N, above 100 µM; in the assay with 786-0 renal, above 100 µM; in the assay with SW-620 colon, above 100 µM; in the assay on PC-3 prostate, above 100 µM. Besides, the concentration for total growth inhibition (TGI) in the assay on A549 NSCLC was above 100 µM; in the assay on MOLT-4 leukemia, above 100 µM; in the assay with COLO 205 colon it was above 100 µM; with NCI-H23 lung, 47.7 µM; in the assay on NCI-H226 lung it was above 100 µM; in the assay with HT29 colon, above 100 µM. The TGI with MDA-MB-435 is above 100 µM; in the assay on NCI/ADR-RES ovarian it was above 100 µM; with SN12C renal, above 100 µM; with IGROV1 ovarian it was 65.3 µM.

As for `OCC1OC(n2nc(-c3ccccc3)nc2-c2cnccn2)C(O)C(O)C1O` (configuration not stated), the TGI in the assay on LOX IMVI melanoma, in the assay on SNB-75 CNS, in the assay with MDA-N, in the assay with 786-0 renal, in the assay on NCI-H522 lung and in the assay on SW-620 colon was above 100 µM in each case. Moreover, the TGI in the assay on PC-3 prostate, in the assay on A549 NSCLC, in the assay with HL-60(TB) leukemia, with MOLT-4 leukemia, with COLO 205 colon and in the assay on NCI-H23 lung was above 100 µM throughout. The TGI in the assay with HT29 colon, with MDA-MB-435, with NCI/ADR-RES ovarian, with CCRF-CEM leukemia, in the assay on SN12C renal and in the assay with IGROV1 ovarian was above 100 µM throughout.

Take `CC(=O)ON(C(C)=O)c1ccc(-c2nc3ccccc3s2)cc1`: the concentration for total growth inhibition (TGI) in the assay with LOX IMVI melanoma is above 66.7 µM; in the assay with SNB-75 CNS it was above 89.9 µM; in the assay with MDA-N, above 77 µM; in the assay on 786-0 renal, above 57.5 µM; with NCI-H522 lung, 30.7 µM; in the assay with MALME-3M melanoma, 30.5 µM. The TGI was above 59.9 µM in the assay with SW-620 colon; above 100 µM with PC-3 prostate; above 79 µM in the assay with A549 NSCLC; 49.3 µM with MOLT-4 leukemia; above 53.7 µM in the assay with COLO 205 colon; above 90.8 µM in the assay with NCI-H23 lung. The concentration for total growth inhibition (TGI) with NCI-H226 lung is 27.7 µM; with HT29 colon, 52.4 µM; in the assay with MDA-MB-435, above 60.3 µM; in the assay with NCI/ADR-RES ovarian, 39.9 µM; with CCRF-CEM leukemia, above 100 µM; with SN12C renal, above 100 µM. Moreover, in the assay on IGROV1 ovarian, the total growth inhibition concentration (TGI) was determined as 36.9 µM.

In the case of `O=c1sc2c(s1)SSSSS2`, the TGI in the assay with LOX IMVI melanoma, with MDA-N, with 786-0 renal, in the assay with NCI-H522 lung, in the assay with MALME-3M melanoma and with SW-620 colon was above 50 µM each time. For the same compound, the TGI was above 50 µM in the assay with PC-3 prostate; above 50 µM in the assay with A549 NSCLC; 42.3 µM in the assay on MOLT-4 leukemia; above 50 µM with COLO 205 colon; above 50 µM in the assay with NCI-H23 lung; above 50 µM in the assay with NCI-H226 lung. For the same compound, the TGI is above 50 µM in the assay with HT29 colon; above 50 µM in the assay on MDA-MB-435; above 50 µM with NCI/ADR-RES ovarian; 42.1 µM in the assay on CCRF-CEM leukemia; above 50 µM in the assay with SN12C renal; above 50 µM in the assay with IGROV1 ovarian.
